Here are results for two compounds from patent US6334944B1, “Process for producing an amino acid-N,N-diacetic acid and its salts” (Showa Denko K.K., priority 1998, dated 2002).

The data set can be described thus: Hygroscopicity and redissolution of dried powder or crystal. Type of data set: physicochemical. The following applies: for Hygroscopicity: dried powder or crystal. How it is done: The powder contained 9.98% of calcium.
The crystal was dried in air at 25° C. to reduce the moisture content to 0.7%.

On to `O=C([O-])CCC(C(=O)[O-])N(CC(=O)[O-])CC(=O)[O-].[Fe+3].[NH4+]` (stereo not drawn) [Example 22, ammonium ferric salt of glutamic acid-N,N-diacetic acid], for which the Hygroscopicity result was “free of hygroscopicity”.

Turning to “calcium disodium glutamic acid-N,N-diacetate [Example 13]”, the Hygroscopicity entry is “free of hygroscopicity”. The “Dissolution of powder in water” value (spray-dried powder) was “readily dissolved in water”.
